From patent publication US8778966B2, “Quinolinone derivatives as PARP and tank inhibitors” (Janssen Pharmaceutica, NV, priority 2007, dated 2014)
Like-named read-outs stand apart in the source and are kept apart here.

Legend:
PC-3 cells = assay: Antiproliferative activity, Alamar Blue assay, PC-3 cells; assay type: cell-based, human; conditions: for PC3 antiproliferative activity pIC50: PC3 cells; for IC50: Homo sapiens, PC-3, PC3 cells, read-out: PC3 antiproliferative activity pIC50 (converted)
Procedure, shortened: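 PC-3 cells seeded at 4.5×10^3 cells/ml, left to adhere 24 hr, then exposed to compound for 4 days. Resazurin (Alamar Blue) added for a further 24 hrs at 37° C; fluorescence read at 540/590 nm. Viability as % of untreated control, mean of 3 wells; IC50 by probit analysis, reported as pIC50.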

Human PARP-1 enzyme = biological target: T1, Human PARP-1 enzyme (Homo sapiens, UniProt P09874); assay: In vitro Scintillation Proximity Assay (SPA) for PARP-1 inhibitory activity; assay type: biochemical; conditions: read-out: in vitro SPA assay PARP-1 pIC50 (converted)
T1 construct: purchased Trevigen
T1 sequence (P09874 whole entry): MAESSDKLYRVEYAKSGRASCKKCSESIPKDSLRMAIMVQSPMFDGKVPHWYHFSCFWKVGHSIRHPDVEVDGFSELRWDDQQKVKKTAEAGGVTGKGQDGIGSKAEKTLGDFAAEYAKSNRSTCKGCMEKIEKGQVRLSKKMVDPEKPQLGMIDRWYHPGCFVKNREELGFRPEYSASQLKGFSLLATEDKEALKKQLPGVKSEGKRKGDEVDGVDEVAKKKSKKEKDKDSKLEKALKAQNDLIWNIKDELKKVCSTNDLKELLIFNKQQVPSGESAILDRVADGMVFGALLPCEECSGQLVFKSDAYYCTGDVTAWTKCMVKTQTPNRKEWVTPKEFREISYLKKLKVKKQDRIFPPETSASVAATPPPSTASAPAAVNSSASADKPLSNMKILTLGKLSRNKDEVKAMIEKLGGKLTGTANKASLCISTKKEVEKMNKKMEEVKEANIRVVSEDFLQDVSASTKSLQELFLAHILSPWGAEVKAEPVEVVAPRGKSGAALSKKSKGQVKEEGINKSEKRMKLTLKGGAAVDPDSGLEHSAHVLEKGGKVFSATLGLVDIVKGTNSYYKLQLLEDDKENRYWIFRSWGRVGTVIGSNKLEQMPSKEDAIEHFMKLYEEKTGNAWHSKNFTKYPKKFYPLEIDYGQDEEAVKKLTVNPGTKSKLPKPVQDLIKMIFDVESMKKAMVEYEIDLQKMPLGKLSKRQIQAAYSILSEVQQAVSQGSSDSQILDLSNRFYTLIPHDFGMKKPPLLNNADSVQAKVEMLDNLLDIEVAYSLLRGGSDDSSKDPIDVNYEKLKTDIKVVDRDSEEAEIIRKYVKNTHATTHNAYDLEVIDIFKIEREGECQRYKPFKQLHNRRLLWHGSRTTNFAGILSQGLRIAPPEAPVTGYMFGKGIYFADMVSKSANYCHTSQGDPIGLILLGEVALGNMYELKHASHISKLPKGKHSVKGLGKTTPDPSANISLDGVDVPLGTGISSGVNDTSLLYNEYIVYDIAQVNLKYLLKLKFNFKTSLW
Procedure, shortened: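 SPA assay: nicked-DNA-activated PARP-1 (0.1–0.2 μg/ml) ADP-ribosylates biotinylated histones (2 μg/ml) using [3H]-NAD+, 20 min at RT in Tris pH 8/DTT/MgCl2, stopped with 2 mM NAD+. Blank-subtracted cpm expressed as % control; IC50 by linear interpolation, reported as pIC50 (10−5 to 3×10−9 M tested).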

HCT116 cells = assay: Antiproliferative activity, Alamar Blue assay, HCT116 cells; assay type: cell-based, human; set-up: key to HCT116 antiproliferative activity pIC50: pIC50 = -log IC50 (IC50: conc. reducing growth to 50% of control); conditions: for IC50: Homo sapiens, HCT-116, HCT116 cells, read-out: HCT116 antiproliferative activity pIC50 (converted)
Procedure, shortened: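 HCT116 cells seeded, adhered 24 h, then exposed to compound for 4 days; Alamar Blue (resazurin) added for 4 h at 37 °C, fluorescence read at 540/590 nm. Viability as % of untreated control, triplicate wells; IC50 by probit analysis, reported as pIC50.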

SMILES | PC3 antiproliferative activity pIC50 (PC-3 cells) | IC50 (Human PARP-1 enzyme) | IC50 (HCT116 cells) | IC50 (PC-3 cells) | HCT116 antiproliferative activity pIC50 (HCT116 cells; HCT116 cells) | IC50 (PC-3 cells; Alamar Blue) | IC50 (HCT116 cells; Alamar Blue)
CCc1cc2ccc(C(C)(C#N)Cc3cc(Cl)cc4c3OCOC4)cc2[nH]c1=O (stereo not drawn) [Compound 90] | 5.8 | 316 nM | 1000 nM | – | – | – | –
CCc1cc2ccc(C(C)(C#N)Cc3cc4c(cc3Cl)OCO4)cc2[nH]c1=O (stereo not drawn) [Compound 91] | – | 1260 nM | 501 nM | 398 nM | – | – | –
CCc1cc2ccc(C(C)(C#N)Cc3cc(Cl)cc4c3OCOC4)cc2[nH]c1=O (stereo not drawn) [Compound 92] | 5.4 | 251 nM | – | – | 5.8 | – | –
CCc1cc2ccc(C(C)(C#N)Cc3nncn3C)cc2[nH]c1=O (stereo not drawn) [Compound 93] | – | 126 nM | > 10000 nM | 10000 nM | – | – | –
CCc1cc2ccc(C(C)(C#N)Cc3cccc4nnn(C)c34)cc2[nH]c1=O (stereo not drawn) [Compound 94] | – | 126 nM | 6310 nM | > 10000 nM | – | – | –
CCc1cc2ccc(C(C)(C#N)Cc3nn(C)c4ccccc34)cc2[nH]c1=O (stereo not drawn) [Compound 95] | – | 251 nM | 251 nM | 631 nM | – | – | –
CCc1cc2ccc(C(C)(C#N)Cc3cn4ccccc4n3)cc2[nH]c1=O (stereo not drawn) [Compound 96] | – | 126 nM | 5010 nM | > 10000 nM | – | – | –
CCc1cc2ccc(C(C)(C#N)Cc3cccnc3)cc2[nH]c1=O (stereo not drawn) [Compound 97] | – | 39.8 nM | 2510 nM | > 10000 nM | – | – | –
CCc1cc2ccc(C(C)(C#N)Cc3ccncc3)cc2[nH]c1=O (stereo not drawn) [Compound 98] | – | 158 nM | > 10000 nM | > 10000 nM | – | – | –
CCc1cc2ccc(C(C)(C#N)Cc3cc(Cl)ccc3Cl)cc2[nH]c1=O (stereo not drawn) [Compound 99] | – | 1000 nM | 79.4 nM | 398 nM | – | – | –
CCc1cc2ccc(C(C)(C#N)Cc3ccccc3C#N)cc2[nH]c1=O (stereo not drawn) [Compound 101] | – | 50.1 nM | 2510 nM | 3160 nM | – | – | –
CCc1cc2ccc(C(C)(C#N)Cc3ccccc3OC(F)(F)F)cc2[nH]c1=O (stereo not drawn) [Compound 102] | – | 1580 nM | 2000 nM | 1000 nM | – | – | –
CCc1cc2ccc(C(C)(C#N)Cc3ccccc3C(F)(F)F)cc2[nH]c1=O (stereo not drawn) [Compound 103] | – | 1260 nM | 1000 nM | 631 nM | – | – | –
Cc1cc2ccc(C(C)(C#N)Cc3cc4ccccc4[nH]3)cc2[nH]c1=O (stereo not drawn) [Compound 234] | – | 251 nM | – | – | – | 10000 nM | 5010 nM
CCc1cc2ccc(C(C)(C#N)Cc3ccc(F)c(C#N)c3)cc2[nH]c1=O (stereo not drawn) [Compound 267] | – | 79.4 nM | – | – | – | 501 nM | 200 nM
CCc1cc2ccc(C(C)(C#N)CCOc3ccccc3C#N)cc2[nH]c1=O (stereo not drawn) [Compound 276] | – | 79.4 nM | – | – | – | 2510 nM | 1580 nM
CCc1cc2ccc(C(C)(C#N)CCOc3cc(Cl)c(Cl)cc3Cl)cc2[nH]c1=O (stereo not drawn) [Compound 277] | – | 398 nM | – | – | – | 501 nM | 501 nM
CCc1cc2ccc(C(C)(C#N)CCOc3ccccc3F)cc2[nH]c1=O (stereo not drawn) [Compound 278] | – | 100 nM | – | – | – | 2000 nM | 1580 nM
CCc1cc2ccc(C(C)(C#N)CCOc3ccc4c(c3)OCO4)cc2[nH]c1=O (stereo not drawn) [Compound 279] | – | 79.4 nM | – | – | – | 1580 nM | 1260 nM
CCc1cc2ccc(C(C)(C#N)Cc3cc(OC)cc(OC)c3)cc2[nH]c1=O (stereo not drawn) [Compound 332] | – | 79.4 nM | – | – | – | 251 nM | 100 nM
